{"source": "ChEMBL document CHEMBL6153079", "about": "“Discovery of noncovalent diaminopyrimidine-based Inhibitors for glioblastoma via a dual FAK/DNA targeting strategy” (Eur J Med Chem, 2025)", "key": {"Focal adhesion kinase 1 [1]": {"biological_target": "T1, Focal adhesion kinase 1 (Homo sapiens, UniProt Q05397)", "T1 sequence (Q05397 2-1052 limits assumed)": "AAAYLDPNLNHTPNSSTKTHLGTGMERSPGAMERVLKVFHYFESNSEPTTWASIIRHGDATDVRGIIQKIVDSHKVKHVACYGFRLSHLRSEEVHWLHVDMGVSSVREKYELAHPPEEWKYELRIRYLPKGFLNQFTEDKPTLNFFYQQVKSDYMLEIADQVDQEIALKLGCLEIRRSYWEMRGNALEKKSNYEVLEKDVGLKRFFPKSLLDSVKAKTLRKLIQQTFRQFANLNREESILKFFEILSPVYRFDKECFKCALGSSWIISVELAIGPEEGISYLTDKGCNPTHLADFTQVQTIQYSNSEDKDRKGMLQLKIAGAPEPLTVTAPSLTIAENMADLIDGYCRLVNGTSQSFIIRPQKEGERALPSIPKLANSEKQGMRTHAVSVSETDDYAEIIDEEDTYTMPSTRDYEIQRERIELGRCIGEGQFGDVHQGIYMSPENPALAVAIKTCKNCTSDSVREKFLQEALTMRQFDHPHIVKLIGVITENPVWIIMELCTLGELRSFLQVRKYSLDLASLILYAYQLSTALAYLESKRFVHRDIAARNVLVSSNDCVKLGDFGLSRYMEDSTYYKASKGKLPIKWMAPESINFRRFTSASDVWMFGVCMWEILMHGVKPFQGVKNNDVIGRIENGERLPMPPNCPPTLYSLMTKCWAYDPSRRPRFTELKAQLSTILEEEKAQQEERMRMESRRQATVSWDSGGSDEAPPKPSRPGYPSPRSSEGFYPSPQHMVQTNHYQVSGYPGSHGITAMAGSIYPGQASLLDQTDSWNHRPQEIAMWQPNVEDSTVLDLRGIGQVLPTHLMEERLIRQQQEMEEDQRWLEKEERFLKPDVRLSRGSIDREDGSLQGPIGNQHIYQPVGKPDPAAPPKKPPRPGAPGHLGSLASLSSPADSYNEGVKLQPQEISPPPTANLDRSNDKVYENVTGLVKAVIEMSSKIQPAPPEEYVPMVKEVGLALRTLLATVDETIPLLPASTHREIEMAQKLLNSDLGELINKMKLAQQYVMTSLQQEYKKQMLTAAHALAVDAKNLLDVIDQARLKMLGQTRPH", "assay": "Inhibition of FAK (unknown origin) at 50 nM relative to control"}, "U-87 MG [2]": {"test_system": "U-87 MG", "assay": "Inhibition of AKT phosphorylation in human U-87 MG cells at 0.05 uM incubated for 24 hrs by Western blot analysis", "assay_type": "cell-based"}, "[3]": {"assay": "Toxicity in BALB/c mouse implanted with human U-87 MG cells assessed as liver damage at 5 mg/kg, ip administered once daily for 15 days by H and E staining based analysis", "assay_type": "organism-based", "settings": "in vivo, 360 h, time 15 day"}, "[4]": {"assay": "Toxicity in BALB/c mouse implanted with human U-87 MG cells assessed as hypertrophy in myocardium at 5 mg/kg, ip administered once daily for 15 days by H and E staining based analysis", "assay_type": "organism-based", "settings": "in vivo, 360 h, time 15 day"}, "U-87 MG [5]": {"test_system": "U-87 MG", "assay": "Induction of cell cycle arrest in human U-87 MG cells assessed as accumulation of cells at S phase at 2 uM by propidium Iodide staining based flow cytometry analysis (reference value: 9.59%)", "assay_type": "functional, U-87MG ATCC"}, "[6]": {"assay": "Selectivity ratio of IC50 for cytotoxicity against human LO2 assessed as cell viability to IC50 for antiproliferative activity against human U-87 MG assessed as cell viability", "assay_type": "toxicity", "settings": "LO2 cells versus U-87 MG cells, read-out: Ratio IC50"}, "U-87 MG [7]": {"test_system": "U-87 MG", "assay": "Induction of cell cycle arrest in human U-87 MG cells assessed as accumulation of cells at […] at 0.01 uM by propidium Iodide staining based flow cytometry analysis (reference value: 1.67%)", "assay_type": "functional, U-87MG ATCC"}, "[8]": {"assay": "Distribution coefficient, logD of compound in n-Octanol/water at pH 7.4", "assay_type": "physicochemical"}, "U-87 MG [9]": {"test_system": "U-87 MG", "assay": "Induction of cell cycle arrest in human U-87 MG cells assessed as accumulation of cells at G0/G1 phase at 0.02 uM by propidium Iodide staining based flow cytometry analysis (reference value: 80.68%)", "assay_type": "functional, U-87MG ATCC"}, "U-87 MG [10]": {"test_system": "U-87 MG", "assay": "Induction of apoptosis in human U-87 MG cells assessed as late apoptotic cells at 0.02 uM measured upto 24 hrs by Annexin V-FITC/PI staining based flow cytometry analysis (reference value: 0.54%)", "assay_type": "functional, U-87MG ATCC"}, "U-87 MG [11]": {"test_system": "U-87 MG", "assay": "Antiproliferative activity against human U-87 MG assessed as inhibition of cell growth at 0.025 to 0.1 uM", "assay_type": "functional, U-87MG ATCC", "settings": "dose 0.025-0.1 µM"}, "U-87 MG [12]": {"test_system": "U-87 MG", "assay": "Induction of apoptosis in human U-87 MG cells assessed as viable cells at 0.01 uM measured upto 24 hrs by Annexin V-FITC/PI staining based flow cytometry analysis (reference value: 98.4%)", "assay_type": "functional, U-87MG ATCC", "settings": "read-out: Activity"}, "U-87 MG [13]": {"test_system": "U-87 MG", "assay": "Induction of cell cycle arrest in human U-87 MG cells assessed as accumulation of cells at […] at 2 uM by propidium Iodide staining based flow cytometry analysis (reference value: 1.67%)", "assay_type": "functional, U-87MG ATCC"}, "Focal adhesion kinase 1 [14]": {"biological_target": "T1, Focal adhesion kinase 1", "assay": "Inhibition of FAK (unknown origin) at 10 nM relative to control"}, "U-87 MG [15]": {"test_system": "U-87 MG", "assay": "Induction of apoptosis in human U-87 MG cells assessed as […] in cleaved caspase-3 level at 0.05 to 0.8 uM incubated for 24 hrs by Western blot analysis", "assay_type": "functional, cell-based", "settings": "U-87MG ATCC, dose 0.05-0.8 µM"}, "U-251": {"test_system": "U-251", "assay": "Antiproliferative activity against human U-251 assessed as cell viability incubated for 48 hrs by MTT assay", "assay_type": "functional, cell-based", "settings": "U-251, 48 h"}, "U-87 MG [16]": {"test_system": "U-87 MG", "assay": "Induction of apoptosis in human U-87 MG cells assessed as early apoptotic cells at 0.2 uM measured upto 24 hrs by Annexin V-FITC/PI staining based flow cytometry analysis (reference value: 0.45%)", "assay_type": "functional, U-87MG ATCC"}, "U-87 MG [17]": {"test_system": "U-87 MG", "assay": "Induction of cell cycle arrest in human U-87 MG cells assessed as accumulation of cells at […] at 0.02 uM by propidium Iodide staining based flow cytometry analysis (reference value: 1.67%)", "assay_type": "functional, U-87MG ATCC"}, "U-87 MG [18]": {"test_system": "U-87 MG", "assay": "Induction of cell cycle arrest in human U-87 MG cells assessed as accumulation of cells at G2M phase at 0.01 uM by propidium Iodide staining based flow cytometry analysis (reference value: 9.73%)", "assay_type": "functional, U-87MG ATCC"}, "U-87 MG [19]": {"test_system": "U-87 MG", "assay": "Induction of apoptosis in human U-87 MG cells assessed as necrotic cells at 2 uM measured upto 24 hrs by Annexin V-FITC/PI staining based flow cytometry analysis (reference value: 0.62%)", "assay_type": "functional, U-87MG ATCC"}, "U-87 MG [20]": {"test_system": "U-87 MG", "assay": "Antitumor activity against human U-87 MG cells xenografted in BALB/c mouse assessed as inhibition of tumor growth at 5 mg/kg, ip administered once daily for 15 days", "assay_type": "functional, U-87MG ATCC", "settings": "360 h, time 15 day, read-out: TGI"}, "[21]": {"assay": "Selectivity ratio of IC50 for cytotoxicity against human LO2 assessed as cell viability to IC50 for antiproliferative activity against human U-251 assessed as cell viability", "assay_type": "toxicity", "settings": "LO2 cells versus U-251 cells, read-out: Ratio IC50"}, "U-87 MG [22]": {"test_system": "U-87 MG", "assay": "Induction of DNA damage in human U-87 MG cells incubated for 2.5 to 3 hrs by comet assay", "assay_type": "functional, cell-based", "settings": "U-87MG ATCC, dose 0.1-2 µM, time 2.5-3 hrs"}, "U-87 MG [23]": {"test_system": "U-87 MG", "assay": "Induction of cell cycle arrest in human U-87 MG cells assessed as accumulation of cells at G0/G1 phase at 2 uM by propidium Iodide staining based flow cytometry analysis (reference value: 80.68%)", "assay_type": "functional, U-87MG ATCC"}, "U-87 MG [24]": {"test_system": "U-87 MG", "assay": "Induction of apoptosis in human U-87 MG cells assessed as early apoptotic cells at 0.02 uM measured upto 24 hrs by Annexin V-FITC/PI staining based flow cytometry analysis (reference value: 0.45%)", "assay_type": "functional, U-87MG ATCC"}, "[25]": {"assay": "Toxicity in BALB/c mouse implanted with human U-87 MG cells assessed as tubular epithelial degeneration in renal cortex at 25 mg/kg, ip administered once daily for 15 days by H and E staining based analysis", "assay_type": "organism-based", "settings": "in vivo, 360 h, time 15 day"}, "U-87 MG [26]": {"test_system": "U-87 MG", "assay": "Induction of cell cycle arrest in human U-87 MG cells assessed as accumulation of cells at G2M phase at 0.2 uM by propidium Iodide staining based flow cytometry analysis (reference value: 9.73%)", "assay_type": "functional, U-87MG ATCC"}, "U-87 MG [27]": {"test_system": "U-87 MG", "assay": "Induction of apoptosis in human U-87 MG cells assessed as necrotic cells at 0.2 uM measured upto 24 hrs by Annexin V-FITC/PI staining based flow cytometry analysis (reference value: 0.62%)", "assay_type": "functional, U-87MG ATCC"}, "U-87 MG [28]": {"test_system": "U-87 MG", "assay": "Inhibition of ERK1/2 phosphorylation in human U-87 MG cells at 0.8 uM incubated for 24 hrs by Western blot analysis", "assay_type": "cell-based"}, "U-87 MG [29]": {"test_system": "U-87 MG", "assay": "Induction of apoptosis in human U-87 MG cells assessed as early apoptotic cells at 2 uM measured upto 24 hrs by Annexin V-FITC/PI staining based flow cytometry analysis (reference value: 0.45%)", "assay_type": "functional, U-87MG ATCC"}, "U-87 MG [30]": {"test_system": "U-87 MG", "assay": "Antiproliferative activity against human U-87 MG assessed as inhibition of cell growth at 0.005 uM by clonogenic assay relative to control", "assay_type": "functional, U-87MG ATCC"}, "U-87 MG [31]": {"test_system": "U-87 MG", "assay": "Inhibition of ERK1/2 phosphorylation in human U-87 MG cells at 0.05 uM incubated for 24 hrs by Western blot analysis", "assay_type": "cell-based"}, "U-87 MG [32]": {"test_system": "U-87 MG", "assay": "Induction of apoptosis in human U-87 MG cells assessed as viable cells at 0.02 uM measured upto 24 hrs by Annexin V-FITC/PI staining based flow cytometry analysis (reference value: 98.4%)", "assay_type": "functional, U-87MG ATCC", "settings": "read-out: Activity"}, "U-87 MG [33]": {"test_system": "U-87 MG", "assay": "Induction of apoptosis in human U-87 MG cells assessed as early apoptotic cells at 0.01 uM measured upto 24 hrs by Annexin V-FITC/PI staining based flow cytometry analysis (reference value: 0.45%)", "assay_type": "functional, U-87MG ATCC"}}, "note": "Activity calls are given as the source filed them. The rule behind the calls is not given here.", "data": [{"molecule": "CNC(=O)c1ccccc1Nc1nc(Nc2ccc(N3CCN(CCOC(=O)CCCc4ccc(N(CCCl)CCCl)cc4)CC3)cc2)ncc1C(F)(F)F", "values": [{"measurement": "inhibition", "setting": "Focal adhesion kinase 1 [1]", "value": 100, "unit": "%"}, {"measurement": "inhibition", "setting": "U-87 MG [2]", "value": "Active"}, {"measurement": "Activity", "setting": "[3]", "value": "Non-toxic"}, {"measurement": "Activity", "setting": "[4]", "value": "Non-toxic"}, {"measurement": "Activity", "setting": "U-87 MG [5]", "value": 10.99, "unit": "%"}, {"measurement": "selectivity ratio", "setting": "[6]", "value": "> 40"}, {"measurement": "Activity", "setting": "U-87 MG [7]", "value": 1.77, "unit": "%"}, {"measurement": "logD", "setting": "[8]", "value": 6.06}, {"measurement": "Activity", "setting": "U-87 MG [9]", "value": 62.68, "unit": "%"}, {"measurement": "Activity", "setting": "U-87 MG [10]", "value": 4.8, "unit": "%"}, {"measurement": "inhibition (INH)", "setting": "U-87 MG [11]", "value": 100, "unit": "%"}, {"measurement": "viability at 0.01 µM", "setting": "U-87 MG [12]", "value": 74.8, "unit": "%"}, {"measurement": "Activity", "setting": "U-87 MG [13]", "value": 1.88, "unit": "%"}, {"measurement": "inhibition", "setting": "Focal adhesion kinase 1 [14]", "value": 98.6, "unit": "%"}, {"measurement": "Activity", "setting": "U-87 MG [15]", "value": "Active"}, {"measurement": "IC50", "setting": "U-251", "value": 0.02, "unit": "µM"}, {"measurement": "Activity", "setting": "U-87 MG [16]", "value": 28.3, "unit": "%"}, {"measurement": "Activity", "setting": "U-87 MG [17]", "value": 1.87, "unit": "%"}, {"measurement": "Activity", "setting": "U-87 MG [18]", "value": 16.53, "unit": "%"}, {"measurement": "Activity", "setting": "U-87 MG [19]", "value": 2.16, "unit": "%"}, {"measurement": "inhibition in vivo at 5 mg/kg", "setting": "U-87 MG [20]", "value": 63.7, "unit": "%"}, {"measurement": "selectivity ratio", "setting": "[21]", "value": "> 40"}, {"measurement": "Activity", "setting": "U-87 MG [22]", "value": "Dose-dependent-effect; Ability To Induce Dna Damage Was Stronger Than That Of Tmx And Chlorambucil"}, {"measurement": "Activity", "setting": "U-87 MG [23]", "value": 38.9, "unit": "%"}, {"measurement": "Activity", "setting": "U-87 MG [24]", "value": 25.9, "unit": "%"}, {"measurement": "Activity", "setting": "[25]", "value": "Non-toxic"}, {"measurement": "Activity", "setting": "U-87 MG [26]", "value": 43.61, "unit": "%"}, {"measurement": "Activity", "setting": "U-87 MG [27]", "value": 2.31, "unit": "%"}, {"measurement": "inhibition", "setting": "U-87 MG [28]", "value": 100, "unit": "%"}, {"measurement": "Activity", "setting": "U-87 MG [29]", "value": 46.5, "unit": "%"}, {"measurement": "inhibition at 0.005 µM", "setting": "U-87 MG [30]", "value": 73, "unit": "%"}, {"measurement": "inhibition", "setting": "U-87 MG [31]", "value": "Active"}, {"measurement": "viability at 0.02 µM", "setting": "U-87 MG [32]", "value": 63.8, "unit": "%"}, {"measurement": "Activity", "setting": "U-87 MG [33]", "value": 15.8, "unit": "%"}]}]}
